Reference: article PMC8191813 (Antiviral research, 2017)
Like-named read-outs stand apart in the source and are kept apart here.

Tests used:
CCHFV/ZsG [1] = test: microbe, parasite or virus in culture; type: cell-based, Crimean-Congo hemorrhagic fever virus
CCHFV/ZsG [2] = test: microbe, parasite or virus in culture; type: cell-based, Crimean-Congo hemorrhagic fever virus; conditions: Orthonairovirus haemorrhagiae, SW13, read-out: EC50 CCHFV/ZsG
wild-type CCHFV = test: microbe, parasite or virus in culture; type: cell-based, Crimean-Congo hemorrhagic fever virus; conditions: for EC50: Orthonairovirus haemorrhagiae, Huh-7, read-out: EC50 CCHFV
CCHFV = conditions: read-out: previously reported EC50; cited from earlier work
in vitro = conditions: human
rats = conditions: rat, in vivo; cited from earlier work
woodchucks = conditions: in vivo; cited from earlier work
CCHF = conditions: in vivo; cited from earlier work
[3] = Orthonairovirus haemorrhagiae, Huh-7, read-out: EC50 CCHFV/ZsG

SMILES: NC(=O)c1ncn([C@@H]2O[C@H](CO)[C@@H](O)[C@H]2O)n1 [Ribavirin, ribavirin]
- selectivity index (SI) CCHFV/ZsG (CCHFV/ZsG [1]): 12.48 ± 2.61 (> 10)
- EC50 (CCHFV/ZsG [1]; [3]): 12500 ± 2600 nM
- EC50 (CCHFV/ZsG [1]; read-out: EC50 CCHFV/ZsG): 12500 nM
- EC50 (CCHFV/ZsG [2]): 5690 ± 710 nM
- selectivity index (SI) CCHFV (wild-type CCHFV): 5.69 (> 26)
- virus detection at the highest concentration of compound tested (wild-type CCHFV): no virus detected
- EC50 (wild-type CCHFV): 5690 nM
- EC50 (CCHFV): 11500 nM
- CC50 (in vitro): > 150000 nM

SMILES: Nc1ccn([C@@H]2O[C@H](CO)[C@@H](O)[C@H]2F)c(=O)n1 [2′-dFC, 2′-deoxy-2′-fluorocytidine]
- ZsG fluorescence in initial screen (CCHFV/ZsG [1]): < 30 % of control
- potency relative to T-705 (CCHFV/ZsG [1]): 17 ×
- potency relative to ribavirin (CCHFV/ZsG [1]): 200 ×
- selectivity index (SI) CCHFV/ZsG (CCHFV/ZsG [1]): 0.061 ± 0.018 (> 820)
- EC50 (CCHFV/ZsG [1]; [3]): 61 nM
- CCHFV titer reduction compared to DMSO only-treated control (wild-type CCHFV): approximately 2 logs
- selectivity index (SI) CCHFV (wild-type CCHFV): 0.031 (> 1613)
- virus detection at the highest concentration of compound tested (wild-type CCHFV): no virus detected
- EC50 (wild-type CCHFV): 31 nM
- cytotoxicity, result in words (Huh7 cells): no cytotoxicity
- cytotoxicity, result in words (SW13 cells): no associated cytotoxicity
- CC50 (in vitro): > 50000 nM
- viability (in vitro): > 80%
- adverse clinical effects (rats): no adverse clinical effects
- adverse clinical effects (woodchucks): no adverse clinical effects

SMILES: COc1c(C)c2c(c(O)c1C/C=C(\C)CCC(=O)O)C(=O)OC2 [Mycophenolic acid, mycophenolic acid]
- selectivity index (SI) CCHFV/ZsG (CCHFV/ZsG [1]): 0.10 ± 0.01 (18)
- EC50 (CCHFV/ZsG [1]; [3]): 100 nM
- selectivity index (SI) CCHFV (wild-type CCHFV): 0.19 (9)
- EC50 (wild-type CCHFV): 190 nM
- CC50 (in vitro): 1780 ± 250 nM

SMILES: COc1c(C)c2c(c(O)c1C/C=C(\C)CCC(=O)OCCN1CCOCC1)C(=O)OC2 [MMF, mycophenolate mofetil]
- ZsG fluorescence in initial screen (CCHFV/ZsG [1]): < 30 % of control
- EC50 (CCHFV/ZsG [1]; [3]): 390 ± 130 nM
- viability (in vitro): > 80%

SMILES: NC(=O)c1nc(F)c[nH]c1=O [T-705, favipiravir]
- ZsG fluorescence in initial screen (CCHFV/ZsG [1]): < 30 % of control
- selectivity index (SI) CCHFV/ZsG (CCHFV/ZsG [1]): 1.03 ± 0.16 (> 50)
- EC50 (CCHFV/ZsG [1]; [3]): 1030 nM
- CCHFV titer reduction compared to DMSO only-treated control (wild-type CCHFV): approximately 2 logs
- selectivity index (SI) CCHFV (wild-type CCHFV): 0.88 (> 57)
- virus detection at the highest concentration of compound tested (wild-type CCHFV): no virus detected
- EC50 (wild-type CCHFV): 880 nM
- EC50 (CCHFV): 7000 nM
- efficacy in mouse model of CCHF (CCHF): higher efficacy than ribavirin
- CC50 (in vitro): > 50000 nM
- viability (in vitro): > 80%
